The target of series [1] is T1, Intestinal 5-HT3 receptor (Cavia porcellus, UniProt O70212).
T1 sequence (O70212 24-490 limits assumed): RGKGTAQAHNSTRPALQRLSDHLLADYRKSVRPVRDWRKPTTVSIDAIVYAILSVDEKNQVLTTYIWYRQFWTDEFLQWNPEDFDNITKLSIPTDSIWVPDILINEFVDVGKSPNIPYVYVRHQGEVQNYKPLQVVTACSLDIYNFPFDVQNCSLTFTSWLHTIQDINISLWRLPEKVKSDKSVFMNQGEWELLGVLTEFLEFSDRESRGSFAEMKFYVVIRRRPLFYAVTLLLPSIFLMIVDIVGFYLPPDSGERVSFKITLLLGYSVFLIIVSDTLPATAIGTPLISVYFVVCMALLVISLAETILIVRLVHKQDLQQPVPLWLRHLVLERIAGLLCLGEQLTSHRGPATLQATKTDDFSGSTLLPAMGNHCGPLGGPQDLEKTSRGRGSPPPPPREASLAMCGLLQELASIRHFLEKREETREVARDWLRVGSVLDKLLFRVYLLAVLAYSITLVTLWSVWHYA
In words: Intestinal 5-HT3 receptor antagonism (isolated distal colon, 2-methylserotonin-induced contraction). The class given is cell-based, Hartley guinea pigs. Particulars: for Kb: isolated distal colon, 2-methylserotonin contraction.
Method: The test was conducted following the method of Miyata, et al. (The Journal of Pharmacology and Experimental Therapeutics Vol.259, No:1, 15 (1991)).
Male Hartley guinea pigs with a body weight of 300-400 g were bled to death, the distal colon (3-10 cm from the anus) was isolated and suspended in a Magnus tube filled with Krebs solution aerated with a mixed gas (95% O2, 5% CO2), and subjected to a tensile load of 1 g. After constant contraction by cumulative addition of 2-methylserotonin (10^-6 -10^-4 M) was obtained, the test agent was added and the pA2 value of the test agent was calculated based on its inhibiting action on the initial value.
The value (pA2 value) is defined as the negative logarithm (-logM) of the molar concentration (M) of the antagonist required to reduce the effect of serotonin at a concentration of 2 times the 2-methylserotonin concentration (EC50) necessary to induce half of the maximum contraction reaction, to an effect induced by an EC50 of serotonin.

For series [2], the target named is T2, 5-HT3 receptors in the heart (Rattus norvegicus, UniProt P35563).
T2 construct: from tissue; host or cells: living anesthetized male SD rats (in vivo)
T2 sequence (P35563 24-483): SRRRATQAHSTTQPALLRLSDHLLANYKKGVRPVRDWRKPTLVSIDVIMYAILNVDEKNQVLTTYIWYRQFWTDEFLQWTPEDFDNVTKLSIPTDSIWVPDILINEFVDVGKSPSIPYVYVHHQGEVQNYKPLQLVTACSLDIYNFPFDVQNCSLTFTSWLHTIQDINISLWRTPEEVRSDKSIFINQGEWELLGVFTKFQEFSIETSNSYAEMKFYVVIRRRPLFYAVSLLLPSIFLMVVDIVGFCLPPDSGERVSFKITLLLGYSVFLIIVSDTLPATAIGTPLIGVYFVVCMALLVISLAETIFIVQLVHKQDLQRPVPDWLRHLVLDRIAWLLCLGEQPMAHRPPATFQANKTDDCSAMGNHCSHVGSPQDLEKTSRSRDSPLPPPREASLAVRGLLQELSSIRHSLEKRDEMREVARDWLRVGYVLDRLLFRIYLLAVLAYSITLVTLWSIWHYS
Put plainly: Antagonism against Von Bezold-Jarisch reflex (BJ reflex). Particulars: 5 min before serotonin 30 μg/kg, read-out: ID50 (the source's name). The class given is in vivo, SD rats. As to the method:
Antagonism against Von Bezold-Jarisch reflex (BJ reflex):
The pulse was determined by measuring the electrocardiogram R waves (secondary induction) with an instantaneous pulse rate meter.

Series [3] deals with duodenal extension reflex. Put plainly: Inhibiting effect on duodenal extension reflex. The class given is in vivo, Wistar rats. The settings on record: for Inhibition rate, 5-min value / Inhibition rate, 15-min value / Inhibition rate, 25-min value: intravenous. The source says:
Inhibiting effect on duodenal extension reflex: Unfasted male Wistar rats with a body weight of 300-390 g were opened at the abdomen under urethane anesthesia, and ligated at 2 locations, the gastric pyloric region and 3-4 cm directly under it, to create a duodenal loop. […] The beaker was raised at once to create a internal loop pressure of 75 cm H2, and the depressor reflex and effect of the test agent administration were observed. […] The test agent was then administrated intravenously, and at 5, 15 and 25 minutes after administration an extension stimulus was applied, the depressor reflex was observed, and the differences were expressed as percentages with respect to the initial value, to give the inhibition rates.

Series [4] has as its system cisplatin-induced vomiting. Put plainly: Inhibiting effect on cisplatin-induced vomiting. The settings on record: oral, 1 hour before cisplatin; for No. of retching / No. of vomiting animals/No. of animals used / No. of vomitings: 6 hours. The class given is in vivo, ferrets. From the text:
Inhibiting effect on cisplatin-induced vomiting:
Vomiting was induced in ferrets by administration of cisplatin. The inhibiting effect on this vomiting was observed. […] The test agents were orally administered one hour prior to cisplatin administration. […]

A further series is described as follows: Acute toxicity (oral). The class given is in vivo. The settings on record: rats; for LD50: rat, in vivo; for cases of death: 1000 mg/kg.
Another series concerns gastric emptying. In words: Accelerating effect on gastric emptying (cisplatin-reduced). The class given is in vivo, SD rats. The settings on record: for Gastric evacuation: oral, 30 min before cisplatin 10 mg/kg. The procedure:
Accelerating effect on gastric emptying
Seven-week-old male SD rats which had been fasted for 24 hours were used. The effect on gastric emptying was studied in rats with reduced gastric emptying due to cisplatin. The rats were intragastrically administered the test feed (1.5% aqueous CMC solution containing 50 mg/100 ml phenol red) at 1.5 ml/rat, and after 15 minutes the stomachs were dissected, the residual amount of phenol red in the stomach was measured, in order to determine the gastric emptying in normal animals. A cisplatin-induced reduction in gastric emptying was measured by intraabdominal administration of cisplatin (10 mg/kg) 30 minutes prior to supplying the test feed. The test compound was also administered orally 30 minutes prior to the cisplatin administration to study the accelerating effect of the test compound on gastric emptying.

Series [5] deals with restraint stress-induced diarrhea. Put plainly: Inhibiting effect on restraint stress-induced diarrhea (intraabdominal administration). The class given is in vivo, Wistar rats. Particulars: 30 μg/kg, 30 min before stress. As to the method:
Inhibiting effect on restraint stress-induced diarrhea (intraabdominal administration): This test was conducted in the same manner as Test 3. Nine- to ten-week-oldmale Wistar rats fasted overnight were placed in a stress case and their feces produced in 5 hours were observed. Of 15 rats, 14 developed diarrhea. The inhibiting effect on diarrhea was measured by intraabdominal administration of a test compound 30 minutes prior to placement in the stress cage.

The subject of series [6] is 5-HT3 receptors in the upper intestine. In words: Antagonism against 5-HT-induced intestinal secretion (jejunal loop). The class given is in vivo, wister rats. Particulars: for net fluid transfer in jejunal loop: caudal vein, 15 min before serotonin. As to the method:
Antagonism against 5-HT-induced intestinal secretion:
Male wister rats (8-11 weeks old) were anesthetized with urethane, and the abdomen was opened a polyethylene catheter was placed in the jejunum 5 cm distal to the duodenojejunal flexure and fixed by ligation. The second ligation was made at a distal point of 20 cm to create a jejunal loop. Two ml of physiological saline was injected into this loop and initiated continuous injection of physiological saline (0.1 ml/min) or 5-HT (3 μg/0.1 ml/kg/min, serotonin treated group) into the mesenteric artery through the mesenteric artery gastric branch, and after 30 minutes the jejunal loop was isolated, the residual fluid amount was measured, and the net fluid transfer per gram of tissue weight was calculated. The net fluid transfer was expressed as the fluid amount (weight) change in 30 minutes per jejunal tissue weight (g/30 min/g). A "+" was assigned when the fluid amount increased compared with 2 ml of physiological saline injected into the loop, and "-" when it decreased

The subject of series [7] is restrained stress-induced diarrhea. Put plainly: Inhibiting effect on restrained stress-induced diarrhea (oral administration). The class given is in vivo, Wistar rats. Particulars: 1 hour before stress. The procedure:
Inhibiting effect on restrained stress-induced diarrhea (oral administration): This test was conducted following the method of Miyata, et al. […] Nine-week-old male Wistar rats fasted overnight were placed in a stress cage and their feces produced in 5 hours were observed. Of 15 rats, 14 developed diarrhea. The inhibiting effect on diarrhea was measured by oral administration of the test compounds one hour prior to placement in the stress cage.

The mark [8] stands for this setting: read-out: M (molar concentration of antagonist).

The structures appear in SMILES notation. Where a name gives a salt, the structure may show the parent alone. Read-outs that look alike come from different tables or passages of the source.

On to `CC1CN(C(=O)C2CCc3[nH]cnc3C2)c2ccccc21` (stereo not shown) [A, reference compound], for which the Kb in series [1] (read-out: pA2 (converted)) is above 10 nM.
With `Cl.O=C(C1CCc2nc[nH]c2C1)N1CC(c2ccccc2)c2ccccc21` (stereo not shown) [Compound 2, 5-[(3-phenylindolin-1-yl)carbonyl]-4,5,6,7-tetrahydrobenzimidazole hydrochloride], the Kb in series [1] (read-out: pA2 (converted)) is 1 nM. For the same molecule, the ED50 in series [2] (iv) is 0.3 µg/kg.
With `Cl.O=C(C1CCc2nc[nH]c2C1)N1CC(c2ccccc2)c2ccccc21` (stereo not shown) [Compound 4, 5-[(3-phenylindolin-1-yl)carbonyl]-4,5,6,7-tetrahydrobenzimidazole hydrochloride], in series [3] (1 μg/kg), the “Inhibition rate, 5-min value” was 21.7%; the “Inhibition rate, 15-min value” stood at 6.7%; the “Inhibition rate, 25-min value” turned out to be 20.2%. In series [3] (10 μg/kg), the “Inhibition rate, 5-min value” is recorded as 16.3%; the “Inhibition rate, 15-min value” was 17.8%; the “Inhibition rate, 25-min value” is given as 21.1%. For the same molecule, the “inhibition of intestinal sensitivity to dilatation / alleviation of abdominal pain (in words)” value in [3] (rat, in vivo) was “inhibited intestinal sensitivity to dilatation stimulation more strongly than YM-060”. In series [1] (colon, relative to YM-060 and YM-114), the “activity in the colon compared to YM-060 and YM-114” value is reported as “about 15 -fold”. Further, the Kb in [1] (setting [8]) was found to be 0.3 nM. Moreover, the Kb in series [1] (read-out: pA2 (converted)) is 0.251 nM. Further, in series [4] (0.3 μg), the “Latency* (time to initial retching)” value was found to be 114.0 min, the “Latency** (time to initial vomiting)” value turned out to be 114.0 min, the No. of retching came to 139.0 and the “No. of vomiting animals/No. of animals used” value is 2/2. Besides, the No. of vomitings in series [4] (0.3 μg) is reported as 7.0. Besides, in series [4] (1.0 μg), the “Latency* (time to initial retching)” value is above 289.7 min, the “Latency** (time to initial vomiting)” value came to 293.0 min, the No. of retching stood at 14.7 and the “No. of vomiting animals/No. of animals used” value is on record as 1/3. This molecule also showed a No. of vomitings in series [4] (1.0 μg) of 1.0. In addition, in “Acute toxicity (oral)”, the LD50 was at least 1000 mg/kg and the cases of death result is reported as “no cases of death”. In series [2] (iv), the ED50 was determined as 0.00039 µmol/kg. For the same molecule, in the series on gastric emptying (0.3 μg/kg), the “inhibition of cisplatin-induced gastric emptying reduction (in words)” value is on record as “inhibited similar cisplatin-induced gastric emptying reduction” and the Gastric evacuation was 73.3%. Further, in the series with gastric emptying (0.3 μg/kg, relative to the amount of YM-060), the “amount needed relative to YM-060 for similar inhibition of gastric emptying reduction” value is listed as “less than 1/3”. In the series on gastric emptying (1.0 μg/kg), the “gastric emptying acceleration (in words)” value is “gastric emptying was further accelerated” and the Gastric evacuation was found to be 82.4%. Also, in [5], the Inhibition rate is 90% and the “No. of animals with diarrhea/No. of animals used” value is reported as 1/10. Further, the “net fluid transfer in jejunal loop” value in series [6] (0.1 μg/kg) is -0.50 ± 0.07 g/30 min/g tissue weight. For the same molecule, the “net fluid transfer in jejunal loop” value in [6] (1.0 μg/kg) is given as -0.80 ± 0.09 g/30 min/g tissue weight. Also, in [7] (30 μg/kg), the Inhibition rate is recorded as 70% and the “No. of animals with diarrhea/No. of animals used” value is recorded as 3/10.
Regarding `Cl.O=C(C1CCc2nc[nH]c2C1)N1CC(c2cccc(O)c2)c2ccccc21` (stereo not shown) [Compound 6, 5-[(3-(3-hydroxyphenyl)indolin-1-yl)carbonyl]-4,5,6,7-tetrahydrobenzimidazole hydrochloride], the Kb in series [1] (read-out: pA2 (converted)) was 0.1 nM. In “Acute toxicity (oral)”, the LD50 was at least 1000 mg/kg and the cases of death result is “no cases of death”. The ED50 in [2] (iv) is 0.15 µg/kg. In addition, in series [7] (100 μg/kg), the Inhibition rate is 100% and the “No. of animals with diarrhea/No. of animals used” value is 0/5.
As for `Cl.O=C(C1CCc2nc[nH]c2C1)N1CC(c2ccc(O)cc2)c2ccccc21` (stereo not shown) [Compound 8, 5-[(3-(4-hydroxyphenyl)indolin-1-yl)carbonyl]-4,5,6,7-tetrahydrobenzimidazole hydrochloride], the Kb in [1] (read-out: pA2 (converted)) is 0.1 nM. In the series “Acute toxicity (oral)”, the LD50 was at least 1000 mg/kg and the cases of death result was “no cases of death”. The ED50 in series [2] (iv) was determined as 0.13 µg/kg. In series [7] (30 μg/kg), the Inhibition rate is given as 70% and the “No. of animals with diarrhea/No. of animals used” value is listed as 2/10.
`O=C(C1CCc2nc[nH]c2C1)N1CC(c2ccccc2O)c2ccccc21` (stereo not shown) [Compound 10, 5-[(3-(2-hydroxyphenyl)indolin-1-yl)carbonyl]-4,5,6,7-tetrahydrobenzimidazole hydrochloride]: the Kb in series [1] (setting [8]) was 0.05 nM; in [1] (read-out: pA2 (converted)), 0.126 nM.
For the molecule `COc1cccc(C2CN(C(=O)C3CCc4nc[nH]c4C3)c3ccccc32)c1` (stereo not shown) [Compound 12, 5-[(3-(3-methoxyphenyl)indolin-1-yl)carbonyl]-4,5,6,7-tetrahydrobenzimidazole hydrochloride], the Kb is 0.13 nM in series [1] (setting [8]) and 0.1 nM in series [1] (read-out: pA2 (converted)).
`CN1[C@@H]2CC[C@H]1C[C@@H](OC(=O)c1c[nH]c3ccccc13)C2` [Tropisetron, endo-8-methyl-8-azabicyclo[3,2,1]octa-3-yl indol-3-ylcarboxylate]: in series [3] (10 μg/kg), the “Inhibition rate, 5-min value” worked out at 42.7%; the “Inhibition rate, 15-min value” was determined as 44.1%; the “Inhibition rate, 25-min value” amounted to 30.6%.
Regarding `O=C([C@@H]1CCc2[nH]cnc2C1)N1CCc2ccccc21` [YM-114, reference compound], the Kb in series [1] (read-out: pA2 (converted)) is 3.98 nM. In addition, the ED50 in series [2] (intravenous) stood at 0.15 µg/kg. Moreover, in [7] (30 μg/kg), the Inhibition rate is 30% and the “No. of animals with diarrhea/No. of animals used” value is 7/10.
Turning to `NCCc1c[nH]c2ccc(O)cc12` [serotonin, 5-hydroxytryptamine], in [6] (serotonin administration versus control), the “acceleration in intestinal secretion” value is 0.19 g/30 min/g tissue weight.

The term LD50 denotes the dose expected to kill half of the subjects tested. A low value points to greater toxicity.

For the origin of these results see patent publication US5677326A, “Indoline compound and 5-HT3 receptor antagonist containing the same as active ingredient” (Tokyo Tanabe Company Limited, priority 1993, dated 1997).
